Test results as given in US11345666B2, “Phenyl and pyridinyl substituted imidazoles as modulators of RORγT” (Janssen Pharmaceutica NV, priority 2018, dated 2022).
Marks after values point to notes of the source that are not given here.

Tests used:
[1] = target: human RORγt ligand binding domain (RORγt LBD) (Homo sapiens (Human), UniProt P51449); assay: RORγt ThermoFluor assay
In short: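 Thermal shift of His-tagged human RORγt LBD (0.065 mg/mL) with 60 μM 1,8-ANS in 100 mM Hepes pH 7.0, 10 mM NaCl, 2.5 mM GSH, 0.002% Tween-20, heated at 1° C./min. Compounds in 1:2 series from a 10 mM DMSO stock; KD estimated from ΔTm using protein unfolding thermodynamics.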

full-length human RORγt = full-length human RORγt (Homo sapiens (Human), UniProt P51449); assay: RORγt (full-length human) reporter assay, conditions A or B; format: cell-based; conditions: for IC50: HEK293T cells, read-out: RORγt (FL) Reporter Assay A or B, IC50; for inhibition at 6 µM: read-out: RORγt (FL) Reporter Assay A or B, % inhibition @ 6 μM, 6 μM compound concentration; for inhibition at 3 µM: 3 μM compound concentration (*); for inhibition at 2 µM: 2 μM compound concentration (**); for inhibition at 0.22 µM: 0.22 μM compound concentration (******)
In short: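 HEK293T cells transiently co-transfected (PEI) with GAL4-DBD–RORγt, GAL4-firefly luciferase and CMV-Renilla reporters; condition A 35,000 cells/well, 170.5 ng DNA/well; condition B 8750 cells/well, 42.6 ng DNA/well.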

[2] = read-out: RORγt (FL) Reporter Assay A or B, % inhibition
[3] = 0.67 μM compound concentration (****)

Chain of full-length human RORγt (P51449 other isoform, or with tags, fused parts or gaps): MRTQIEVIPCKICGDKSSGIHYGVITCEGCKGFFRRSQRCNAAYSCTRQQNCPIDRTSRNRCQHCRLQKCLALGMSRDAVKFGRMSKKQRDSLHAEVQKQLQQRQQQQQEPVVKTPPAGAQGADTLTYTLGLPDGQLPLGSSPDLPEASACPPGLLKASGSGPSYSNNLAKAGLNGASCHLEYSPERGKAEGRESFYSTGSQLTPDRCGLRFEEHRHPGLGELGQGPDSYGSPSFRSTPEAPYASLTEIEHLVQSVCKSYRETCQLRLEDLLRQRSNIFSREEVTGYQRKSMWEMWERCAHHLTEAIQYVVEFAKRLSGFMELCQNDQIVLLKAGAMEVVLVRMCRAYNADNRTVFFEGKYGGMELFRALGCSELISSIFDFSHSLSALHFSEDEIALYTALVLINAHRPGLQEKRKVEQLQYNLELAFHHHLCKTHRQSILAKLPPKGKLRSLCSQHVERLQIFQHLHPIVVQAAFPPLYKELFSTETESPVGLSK
Chain of human RORγt ligand binding domain (RORγt LBD) (P51449 other isoform, or with tags, fused parts or gaps): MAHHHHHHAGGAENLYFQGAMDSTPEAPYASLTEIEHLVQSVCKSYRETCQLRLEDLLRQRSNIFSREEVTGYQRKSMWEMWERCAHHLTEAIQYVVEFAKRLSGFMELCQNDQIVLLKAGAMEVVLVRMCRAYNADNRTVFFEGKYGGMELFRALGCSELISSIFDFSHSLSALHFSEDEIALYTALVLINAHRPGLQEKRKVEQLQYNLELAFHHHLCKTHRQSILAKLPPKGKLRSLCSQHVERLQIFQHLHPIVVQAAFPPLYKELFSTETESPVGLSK

| Compound | Kd [1] [µM] | IC50 (full-length human RORγt) [µM] | inhibition at 6 µM (full-length human RORγt) [%] | inhibition at 3 µM (full-length human RORγt; [2]) [%] | inhibition at 2 µM (full-length human RORγt; [2]) [%] | inhibition at 0.22 µM (full-length human RORγt; [2]) [%] | inhibition at 0.67 µM (full-length human RORγt; 0.67 μM compound concentration (****), read-out: RORγt (FL) Reporter Assay A or B, % inhibition) [%] | RORγt (FL) Reporter Assay A or B, % inhibition (full-length human RORγt; [3]) |
| --- | --- | --- | --- | --- | --- | --- | --- | --- |
| CCc1nc(C(=O)NC[C@]2(O)CC[C@@H](S(C)(=O)=O)CC2)c(C#N)n1-c1ccc(CCC(F)(F)F)cc1OC(F)(F)F [Example 114, 5-Cyano-2-ethyl-N-(((1s,4s)-1-hydroxy-4-(methylsulfonyl)cyclohexyl)methyl)-1-(2-(trifluoromethoxy)-4-(3,3,3-trifluoropropyl)phenyl)-1H-imidazole-4-carboxamide] | 0.11 | 0.66 | 66 |  |  |  |  |  |
| CCc1nc(C(=O)NC[C@]2(O)CC[C@@H](S(C)(=O)=O)C[C@H]2O)c(Cl)n1-c1ncc(CC(C(F)(F)F)C(F)(F)F)cc1OC(F)F (stereo in doubt) [Example 67, 5-Chloro-1-(3-(difluoromethoxy)-5-(3,3,3-trifluoro-2-(trifluoromethyl)propyl)pyridin-2-yl)-N-(((1R*,2R*,4R*)-1,2-dihydroxy-4-(methylsulfonyl)cyclohexyl)methyl)-2-ethyl-1H-imidazole-4-carboxamide] | 0.053 | 0.17 |  | 103 |  |  |  |  |
| [2H]C([2H])([2H])Oc1cc(CC(C)(C)C(F)(F)F)ccc1-n1c(CC)nc(C(=O)NC[C@]2(O)CC[C@@H](S(C)(=O)=O)CC2)c1F [Example 32, 2-Ethyl-5-fluoro-N-(((1s,4s)-1-hydroxy-4-(methylsulfonyl)cyclohexyl)methyl)-1-(2-(methoxy-d3)-4-(3,3,3-trifluoro-2,2-dimethylpropyl)phenyl)-1H-imidazole-4-carboxamide] | 0.012 | 0.071 |  |  | 99 |  |  |  |
| Cc1nc(C(=O)NC[C@H]2CC[C@H](S(C)(=O)=O)CC2)cn1-c1ccc(CC(C)(C)C(F)(F)F)cc1OC(F)F [Example 131, 1-(2-(Difluoromethoxy)-4-(3,3,3-trifluoro-2,2-dimethylpropyl)phenyl)-2-methyl-N-(((1r,4r)-4-(methylsulfonyl)cyclohexyl)methyl)-1H-imidazole-4-carboxamide] | 0.097 | 0.47 |  | 73 |  |  |  |  |
| [2H]C([2H])([2H])Oc1cc(CCC(F)(F)F)ccc1-n1c(CC)nc(C(=O)NC[C@]2(O)CC[C@@H](S(C)(=O)=O)CC2)c1C#N [Example 30, 5-Cyano-2-ethyl-N-(((1s,4s)-1-hydroxy-4-(methylsulfonyl)cyclohexyl)methyl)-1-(2-(methoxy-d3)-4-(3,3,3-trifluoropropyl)phenyl)-1H-imidazole-4-carboxamide] | 0.044 | 0.32 | 96 |  |  |  |  |  |
| CCc1nc(C(=O)NC[C@]2(O)CC[C@@H](S(C)(=O)=O)CC2)c(C(N)=O)n1-c1ccc(CCC(F)(F)F)cc1F [Example 96, 2-Ethyl-1-(2-fluoro-4-(3,3,3-trifluoropropyl)phenyl)-N-(((1s,4s)-1-hydroxy-4-(methylsulfonyl)cyclohexyl)methyl)-1H-imidazole-4,5-dicarboxamide] | 0.45 | 1.4 | 75 |  |  |  |  |  |
| CCc1nc(C(=O)NC[C@H]2CC[C@H](S(C)(=O)=O)CC2)c(Cl)n1-c1ncc(C[C@H](C)C(F)(F)F)cc1OC(F)F (single isomer, unassigned) [Example 72, 5-Chloro-1-(3-(difluoromethoxy)-5-((S*)-3,3,3-trifluoro-2-methylpropyl)pyridin-2-yl)-2-ethyl-N-(((1r,4S)-4-(methylsulfonyl)cyclohexyl)methyl)-1H-imidazole-4-carboxamide] | 0.0098 | 0.075 |  | 98 |  |  |  |  |
| CCc1nc(C(=O)NC[C@H]2CC[C@H](S(C)(=O)=O)CC2)c(Cl)n1-c1ccc(CC(C)(C)C(F)(F)F)cc1F [Example 101, 5-Chloro-2-ethyl-1-(2-fluoro-4-(3,3,3-trifluoro-2,2-dimethylpropyl)phenyl)-N-(((1r,4r)-4-(methylsulfonyl)cyclohexyl)methyl)-1H-imidazole-4-carboxamide] | 0.004 | 0.018 |  |  |  | 65 |  |  |
| CCc1nc(C(=O)NC[C@H]2CC[C@H](S(C)(=O)=O)CC2)c(C)n1-c1ncc(C[C@@H](C)C(F)(F)F)cc1OC(F)F (single isomer, unassigned) [Example 80, 1-(3-(Difluoromethoxy)-5-((R*)-3,3,3-trifluoro-2-methylpropyl)pyridin-2-yl)-2-ethyl-5-methyl-N-(((1r,4R)-4-(methylsulfonyl)cyclohexyl)methyl)-1H-imidazole-4-carboxamide] | 0.058 | 0.054 |  | 113 |  |  |  |  |
| CCc1nc(C(=O)NC[C@H]2CC[C@H](S(C)(=O)=O)CC2)c(Cl)n1-c1ccc(CC(C)C)cc1OC [Example 89, 5-Chloro-2-ethyl-1-(4-isobutyl-2-methoxyphenyl)-N-(((1r,4r)-4-(methylsulfonyl)cyclohexyl)methyl)-1H-imidazole-4-carboxamide] | 0.0002 | 0.016 |  |  |  |  | 66 |  |
| CCc1nc(C(=O)NC[C@@H]2CC[C@@H](S(C)(=O)=O)C[C@H]2O)c(Cl)n1-c1ncc(CC(C(F)(F)F)C(F)(F)F)cc1OC(F)F (stereo in doubt) [Example 65, 5-Chloro-1-(3-(difluoromethoxy)-5-(3,3,3-trifluoro-2-(trifluoromethyl)propyl)pyridin-2-yl)-2-ethyl-N-(((1S*,2R*,4R*)-2-hydroxy-4-(methylsulfonyl)cyclohexyl)methyl)-1H-imidazole-4-carboxamide] | 0.028 | 0.11 |  | 105 |  |  |  |  |
| CCc1nc(C(=O)NC[C@]2(O)CC[C@@H](S(C)(=O)=O)CC2)c(Cl)n1-c1ccc(CC(C)C)cc1OC [Example 90, 5-Chloro-2-ethyl-N-(((1s,4s)-1-hydroxy-4-(methylsulfonyl)cyclohexyl)methyl)-1-(4-isobutyl-2-methoxyphenyl)-1H-imidazole-4-carboxamide] | 0.00031 | 0.021 |  |  | 67 |  |  |  |
| COc1cc(CC(C)(C)C(F)(F)F)ccc1-n1cc(C(=O)NC[C@H]2CC[C@H](S(C)(=O)=O)CC2)nc1C [Example 129, 1-(2-Methoxy-4-(3,3,3-trifluoro-2,2-dimethylpropyl)phenyl)-2-methyl-N-(((1r,4r)-4-(methylsulfonyl)cyclohexyl)methyl)-1H-imidazole-4-carboxamide] | 0.045 | 0.13 |  |  |  | 47 |  |  |
| CCc1nc(C(=O)NC[C@H]2CC[C@H](S(C)(=O)=O)CC2)c(Cl)n1-c1ccc(CC(C)C(F)(F)F)cc1OC (single isomer, unassigned) [Example 5, 5-Chloro-2-ethyl-1-((1R*)-2-methoxy-4-(3,3,3-trifluoro-2-methylpropyl)phenyl)-N-(((1r,4R)-4-(methylsulfonyl)cyclohexyl)methyl)-1H-imidazole-4-carboxamide] | 1.3 | 0.26 |  |  |  |  |  | 43**** % |
| Cc1nc(C(=O)NC[C@H]2CC[C@H](S(C)(=O)=O)CC2)c(C#N)n1-c1ccc(CC(C)(C)C(F)(F)F)cc1OC(F)F [Example 53, 5-Cyano-1-(2-(difluoromethoxy)-4-(3,3,3-trifluoro-2,2-dimethylpropyl)phenyl)-2-methyl-N-(((1r,4r)-4-(methylsulfonyl)cyclohexyl)methyl)-1H-imidazole-4-carboxamide] | 0.0025 | 0.011 |  | 84 |  |  |  |  |
| CCc1nc(C(=O)NC[C@]2(O)CC[C@@H](S(C)(=O)=O)CC2)c(F)n1-c1ccc(CC(C)(C)C(F)(F)F)cc1OC(F)F [Example 35, 1-(2-(Difluoromethoxy)-4-(3,3,3-trifluoro-2,2-dimethylpropyl)phenyl)-2-ethyl-5-fluoro-N-(((1s,4s)-1-hydroxy-4-(methylsulfonyl)cyclohexyl)methyl)-1H-imidazole-4-carboxamide] | 0.011 | 0.028 | 97 |  |  |  |  |  |
| CCc1nc(C(=O)NC[C@]2(C#N)CC[C@@H](S(C)(=O)=O)CC2)c(C)n1-c1ncc(CC(C)(C)C(F)(F)F)cc1OC [Example 128, N-(((1s*,4s*)-1-Cyano-4-(methylsulfonyl)cyclohexyl)methyl)-2-ethyl-1-(3-methoxy-5-(3,3,3-trifluoro-2,2-dimethylpropyl)pyridin-2-yl)-5-methyl-1H-imidazole-4-carboxamide] | 0.037 | 0.31 | 105 |  |  |  |  |  |
| CCc1nc(C(=O)NC[C@]2(C#N)CC[C@@H](S(C)(=O)=O)CC2)c(C#N)n1-c1ccc(CC(C)(C)C(F)(F)F)cc1OC(F)F [Example 37, 5-Cyano-N-(((1s*,4s*)-1-cyano-4-(methylsulfonyl)cyclohexyl)methyl)-1-(2-(difluoromethoxy)-4-(3,3,3-trifluoro-2,2-dimethylpropyl)phenyl)-2-ethyl-1H-imidazole-4-carboxamide] | 0.00087 | 0.0053 |  |  |  |  |  | 105**** % |
| CCc1nc(C(=O)NC[C@H]2CC[C@H](S(C)(=O)=O)CC2)c(C#N)n1-c1ccc(CC(C)(C)C(F)(F)F)cc1OC(F)(F)F [Example 113, 5-Cyano-2-ethyl-N-(((1r,4r)-4-(methylsulfonyl)cyclohexyl)methyl)-1-(4-(3,3,3-trifluoro-2,2-dimethylpropyl)-2-(trifluoromethoxy)phenyl)-1H-imidazole-4-carboxamide] | 0.0083 | 0.044 |  |  | 88 |  |  |  |
